Molecular target: T1, YndB (Bacillus subtilis, UniProt O31806)
T1 sequence (O31806 1-144): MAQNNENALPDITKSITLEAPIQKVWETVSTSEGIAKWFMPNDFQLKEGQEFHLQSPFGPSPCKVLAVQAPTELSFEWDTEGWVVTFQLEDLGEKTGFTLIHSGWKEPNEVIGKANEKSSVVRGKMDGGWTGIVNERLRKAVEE
Test: 2D 1H-15N HSQC NMR titration, chemical shift perturbation fit
Format: binding

SMILES: O=C1CC(c2ccccc2)Oc2ccccc21 (stereo not shown) [flavanone]
- Kd: 32 ± 3 µM

SMILES: O=C(/C=C/c1ccccc1)c1ccccc1 [trans-chalcone]
- Kd: < 1 µM

SMILES: O=c1cc(-c2ccccc2)oc2ccccc12 [flavone]
- Kd: 62 ± 9 µM

SMILES: O=c1c(O)c(-c2ccccc2)oc2ccccc12 [flavonol]
- Kd: 86 ± 16 µM
